Common to all, as to assay type: cell-based
One assay concerns OV1063. Kind of assay: MTT cytotoxicity, OV1063 cancer cell line. Conditions: Homo sapiens, OV-1063; OV1063 cells.
The test system of a further assay is OVCAR 3. In words: MTT cytotoxicity, OVCAR 3 cancer cell line. Conditions: Homo sapiens; OVCAR 3 cells.
The next assay deals with DU145. Kind of assay: MTT cytotoxicity, DU145 cancer cell line. To be noted: Homo sapiens, DU-145; DU145 cells.
The test system of the next assay is cancer cells. In words: Uptake of paclitaxel encapsulated in sHDL nanoparticles by cancer cells. To be noted: encapsulated in the delivery particles; HDL receptors; FIG. 7.

For `CC(=O)O[C@H]1C(=O)[C@@]2(C)[C@H]([C@H](OC(=O)c3ccccc3)[C@]3(O)C[C@H](OC(=O)[C@H](O)[C@@H](NC(=O)c4ccccc4)c4ccccc4)C(C)=C1C3(C)C)[C@]1(OC(C)=O)CO[C@@H]1C[C@@H]2O` [Ptx, paclitaxel], the IC50 came out at 14.2 µM in the assay on OV1063, 70.3 µM in the assay on OVCAR 3 and 14.2 µM with DU145. Besides, the “uptake by cancer cells” value in the assay with cancer cells is “taken up by cancer cells via this receptor mediated mechanism”.

In general, IC50 refers to the concentration at which inhibition is half-maximal. Low values mean greater potency, high ones weaker potency.

The record behind these values is US20090110739A1, “Targeted cancer chemotherapy using synthetic nanoparticles” (University of North Texas Health Science Center at Forth …, priority 2007, published 2009).
